What all share (type): cell-based
The test system of one assay is Human RBC. Description: Imaging-based anti-sickling assay, human RBC. An excerpt:
(§1) An imaging assay utilizing automated microscopy and customized algorithms was used to detect sickled or normal (round shaped) RBCs. The assay is capable of discovering anti-sickling agents with physiologically relevant oxygen affinity. The assay uses native mouse or human RBCs, enabling one to identify a broader spectrum of agents and is not restricted to compounds that require direct interaction (e.g., with purified hemoglobin). Thus, in contrast to hemoglobin binding assays, this approach allows for the identification of additional classes of anti-sickling agents that modulate pathways affecting RBC sickling. Compounds resulting from the experiments are also useful for investigating SCD pathophysiology.
(§2) The imaging-based protocol that can distinguish sickled vs normal (round) phenotype of intact RBCs originating from genetically engineered mice expressing human hemoglobin genes (the HbSS Townes knock-in sickle mice), or 2) SCD patients. The imaging was conducted using a BioTek Cytation™ cell imaging multimode reader and software to detect sickled or normal round-shaped phenotype of RBCs with negative control (vehicle treatment) and a positive control, 5-hydroxymethylfurfural (5-HMF).

The test system of a further assay is ss Mouse RBC. Description: Imaging-based anti-sickling assay, ss mouse RBC. As to conditions: read-out: Anti-sickling activity (EC50; μM) ss Mouse RBC.
From the text: as §1, §2

Another assay relates to RBCs. Description: Anti-sickling activity normalized to 5 mM 5-HMF (Table 2). The conditions noted are these: for EC50: read-out: EC50 for anti-sickling activity (uM, normalized to positive control of 5 mM 5-HMF).
From the text: as §1, §2

The mark [1] stands for this setting: Homo sapiens; read-out: Anti-sickling activity (EC50; μM) Human RBC.

Like-named read-outs stand apart in the source and are kept apart here.

One may read the EC50 as the concentration at which the effect is half-maximal. As to `Cc1ccc(Cl)cc1N1C(=O)C=CC1=O` [HDYB-12, 1-(5-chloro-2-methylphenyl)-1H-pyrrole-2,5-dione], the EC50 in the assay with Human RBC (setting [1]) came out at 12 µM; in the assay on ss Mouse RBC, 16 µM.
In the same order, the values of `O=C1C=CC(=O)N1CCCCN1C(=O)C=CC1=O` [HDYB-9] are 78 µM and 29 µM.
Take `O=C1C=CC(=O)N1c1ccc2c(c1)CCO2` [HDYB-26, 1-(2,3-dihydrobenzofuran-5-yl)-1H-pyrrole-2,5-dione]: the EC50 in the assay on Human RBC (setting [1]) was found to be 13 µM; in the assay with ss Mouse RBC it was 9 µM.
On to `O=C1C=CC(=O)N1c1cccc(C(F)(F)F)c1` [HDYB-3, 1-(3-(trifluoromethyl)phenyl)-1H-pyrrole-2,5-dione], for which the EC50 in the assay with Human RBC (setting [1]) and in the assay with ss Mouse RBC was 12 µM throughout.
`O=C1C=CC(=O)N1c1cccc(F)c1` [HDYB-24, 1-(3-fluorophenyl)-1H-pyrrole-2,5-dione]: the EC50 in the assay with Human RBC (setting [1]) is 14 µM; in the assay on ss Mouse RBC, 11 µM.
For the compound `Cc1ccc(N2C(=O)C=CC2=O)cc1Cl` [HDYB-2, 1-(3-chloro-4-methylphenyl)-1H-pyrrole-2,5-dione], the EC50 in the assay on Human RBC (setting [1]) stood at 19 µM; in the assay with ss Mouse RBC it was 15 µM.
Turning to `O=C1OCc2ccc(N3C(=O)C=CC3=O)cc21` [HDYB-27, 1-(3-oxo-1,3-dihydroisobenzofuran-5-yl)-1H-pyrrole-2,5-dione], the results for the 50% effective concentration (EC50) with Human RBC (setting [1]) and in the assay with ss Mouse RBC were 11 µM and 10 µM, respectively.
Consider `O=C1C=CC(=O)N1c1ccc(Br)c(Cl)c1` [HDYB-14, 1-(4-bromo-3-chlorophenyl)-1H-pyrrole-2,5-dione], for which the EC50 in the assay on Human RBC (setting [1]) stood at 23 µM; in the assay on ss Mouse RBC, 27 µM.
On the same counts, the results for `Cc1cc(Cl)cc(-c2ccccc2)c1N1C(=O)C=CC1=O` [HDYB-8, 1-(5-chloro-3-methyl-[1,1′-biphenyl]-2-yl)-1H-pyrrole-2,5-dione] are < 100 µM and < 100 µM.
As for `O=C1C=CC(=O)N1c1ccc(I)cc1` [HDYB-22, 1-(4-iodophenyl)-1H-pyrrole-2,5-dione], the results for the EC50 in the assay with Human RBC (setting [1]) and in the assay with ss Mouse RBC were 41 µM and 13 µM, respectively.
Regarding `O=C1C=CC(=O)N1c1ccc(-c2ccccc2)cc1` [HDYB-23, 1-([1,1′-biphenyl]-4-yl)-1H-pyrrole-2,5-dione], the EC50 is 52 µM with Human RBC (Homo sapiens, read-out: Anti-sickling activity (EC50; μM) Human RBC) and 68 µM in the assay on ss Mouse RBC.
For `CC(C)CCNCC(O)Cn1c2ccc(Cl)cc2c2cc(Cl)ccc21` (stereo not shown) [SCAS2-A2, 1-(3,6-dichloro-9H-carbazol-9-yl)-3-(isopentylamino) propan-2-ol], the “Anti-sickling activity (%, normalized to positive control of 5 mM 5-HMF)” value in the assay on RBCs (10 uM) was 21.45%; with RBCs (33 uM), 25.26%; with RBCs (100 uM), 213.95%.
`COc1ccc(Cl)cc1NC(=O)Nc1nc2c(s1)CN(S(=O)(=O)C1CC1)CC2` [SCAS2_05, 1-(5-chloro-2-methoxyphenyl)-3-(5-(cyclopropylsulfonyl)-4,5,6,7-tetrahydrothiazolo[5,4-c]pyridin-2-yl)urea]: in the assay with Human RBC (FIG. 2; 50 μM; compared to normoxic conditions and control drug 5 mM 5-HMF), the “round shape morphology of RBCs” value is “fully restore round shape morphology”. The “prevention of sickling of RBCs from sickle cells patients” value in the assay on Human RBC (FIG. 2; dose response) is on record as “dose dependently prevent sickling”. Further, the EC50 in the assay with RBCs turned out to be 2.25 µM.
As for `CC(C)CCNCC(O)Cn1c2ccc(Br)cc2c2cc(Br)ccc21` (stereo not shown) [SCAS2-A13, 1-(3,6-dibromo-9H-carbazol-9-yl)-3-(isopentylamino) propan-2-ol], the “Anti-sickling activity (%, normalized to positive control of 5 mM 5-HMF)” value worked out at 71.04% in the assay on RBCs (10 uM), 90.158% in the assay on RBCs (33 uM) and 35.39% in the assay on RBCs (100 uM).
For the compound `O=C1C=CC(=O)N1c1cccc(N2C(=O)C=CC2=O)c1` [HDYB-10], the EC50 in the assay on Human RBC (setting [1]) worked out at 57 µM; in the assay with ss Mouse RBC, 78 µM.
Take `COc1ccc(Cl)cc1NC(=O)Nc1nc2c(s1)CN(S(=O)(=O)N(C)C)CC2` [SCAS2_01, 2-(3-(5-chloro-2-methoxyphenyl)ureido)-N,N-dimethyl-6,7-dihydrothiazolo[5,4-c]pyridine-5 (4H)-sulfonamide]: in the assay on RBCs, the EC50 is 1.1 µM.
Consider `O=C1C=C(Nc2ccccc2)C(=O)N1c1ccccc1` [HDYB-11], for which the EC50 with Human RBC (setting [1]) and in the assay with ss Mouse RBC was < 100 µM throughout.
As for `O=C1C=CC(=O)N1c1cc(Cl)c(N2C(=O)C=CC2=O)cc1Cl` [HDYB-25, 1,1′-(2,5-dichloro-1,4-phenylene)bis(1H-pyrrole-2,5-dione)], the EC50 with Human RBC (setting [1]) was found to be 12 µM; with ss Mouse RBC, 10 µM.
Consider `O=C1C=CC(=O)N1c1cccnc1` [HDYB-15], for which the EC50 with Human RBC (setting [1]) and with ss Mouse RBC was < 100 µM each time.
Take `Cc1ccc(N2C(=O)C=CC2=O)nc1` [HDYB-16]: the EC50 in the assay on Human RBC (setting [1]) and in the assay with ss Mouse RBC was < 100 µM each time.
Turning to `CCC(C)NCC(O)Cn1c2ccc(Cl)cc2c2cc(Cl)ccc21` (stereo not shown) [SCAS2-A14, 1-(sec-butylamino)-3-(3,6-dichloro-9H-carbazol-9-yl) propan-2-ol], the “Anti-sickling activity (%, normalized to positive control of 5 mM 5-HMF)” value was found to be 24.26% in the assay on RBCs (10 uM), 78.71% with RBCs (33 uM) and 131.87% with RBCs (100 uM).
Turning to `O=C1C(=O)N(Cc2ccc(C(F)(F)F)cc2)c2ccc(Cl)cc21` [HDYB-20], the EC50 is 26 µM with Human RBC (setting [1]) and 22 µM with ss Mouse RBC.
In the same order, the values of `Cc1ccc(N2C(=O)C=CC2=O)cc1` [HDYB-21, 1-(p-tolyl)-1H-pyrrole-2,5-dione] are 32 µM and 37 µM.
In the same order, the values of `O=C1C=CC(=O)N1c1cccc(Cl)c1` [HDYB-1, 1-(3-chlorophenyl)-1H-pyrrole-2,5-dione] are 6.3 µM and 5 µM.
As to `CC(C)(C)SCC(O)Cn1c2ccc(Cl)cc2c2cc(Cl)ccc21` (stereo not shown) [SCAS2_61, 1-(tert-butylthio)-3-(3,6-dichloro-9H-carbazol-9-yl) propan-2-ol], the concentration giving a half-maximal response (EC50) with RBCs worked out at 3.12 µM.
For the compound `O=C1C=CC(=O)N1c1ccccc1` [HDYB-5, 1-phenyl-1H-pyrrole-2,5-dione], the concentration giving a half-maximal response (EC50) with Human RBC (setting [1]) is 17 µM; with ss Mouse RBC, 21 µM.
For the compound `O=C1C=CC(=O)N1c1cnc2ccccc2c1` [HDYB-17], the half-maximal effective concentration (EC50) in the assay on Human RBC (setting [1]) and with ss Mouse RBC was < 100 µM in each case.
As to `Nc1nc2ccc(S(=O)(=O)N3CCCCC3)cc2s1` [SCAS2_02, 6-(piperidin-1-ylsulfonyl)benzo[d]thiazol-2-amine], the EC50 in the assay on RBCs was determined as 25.4 µM.
For `O=C1C(=O)N(Cc2ccccc2)c2ccc(Cl)cc21` [HDYB-19], the EC50 in the assay with Human RBC (setting [1]) amounted to 25 µM; in the assay with ss Mouse RBC it was 27 µM.
In the same order, the values of `O=C1C=CC(=O)N1c1ccc(Br)cc1Cl` [HDYB-6, 1-(4-bromo-2-chlorophenyl)-1H-pyrrole-2,5-dione] are 12 µM and 20 µM.

The record behind these values is patent US20250361243A1, “Compounds and Pharmaceutical Compositions Useful for Managing Sickle Cell Disease and Conditions Related Thereto” (Emory University, priority 2022, published 2025).
